biological target: T1, human HSL (Homo sapiens, UniProt Q05469); test: Human hormone-sensitive lipase (HSL) enzyme inhibition assay (colorimetric, DMPT substrate); format: biochemical; settings: human full length HSL-His6; 2,3-dimercapto-1-propanol tributyrate substrate; 37° C., 20 minutes; read-out: HSL hum IC50
T1 construct: overlapping PCR to generate a full length human HSL ORF with a 3′-His6 tag; His6 (C); made in house; host or cells: High 5 insect cells (baculovirus, pFast-BAC)
T1 sequence (Q05469 1-1076): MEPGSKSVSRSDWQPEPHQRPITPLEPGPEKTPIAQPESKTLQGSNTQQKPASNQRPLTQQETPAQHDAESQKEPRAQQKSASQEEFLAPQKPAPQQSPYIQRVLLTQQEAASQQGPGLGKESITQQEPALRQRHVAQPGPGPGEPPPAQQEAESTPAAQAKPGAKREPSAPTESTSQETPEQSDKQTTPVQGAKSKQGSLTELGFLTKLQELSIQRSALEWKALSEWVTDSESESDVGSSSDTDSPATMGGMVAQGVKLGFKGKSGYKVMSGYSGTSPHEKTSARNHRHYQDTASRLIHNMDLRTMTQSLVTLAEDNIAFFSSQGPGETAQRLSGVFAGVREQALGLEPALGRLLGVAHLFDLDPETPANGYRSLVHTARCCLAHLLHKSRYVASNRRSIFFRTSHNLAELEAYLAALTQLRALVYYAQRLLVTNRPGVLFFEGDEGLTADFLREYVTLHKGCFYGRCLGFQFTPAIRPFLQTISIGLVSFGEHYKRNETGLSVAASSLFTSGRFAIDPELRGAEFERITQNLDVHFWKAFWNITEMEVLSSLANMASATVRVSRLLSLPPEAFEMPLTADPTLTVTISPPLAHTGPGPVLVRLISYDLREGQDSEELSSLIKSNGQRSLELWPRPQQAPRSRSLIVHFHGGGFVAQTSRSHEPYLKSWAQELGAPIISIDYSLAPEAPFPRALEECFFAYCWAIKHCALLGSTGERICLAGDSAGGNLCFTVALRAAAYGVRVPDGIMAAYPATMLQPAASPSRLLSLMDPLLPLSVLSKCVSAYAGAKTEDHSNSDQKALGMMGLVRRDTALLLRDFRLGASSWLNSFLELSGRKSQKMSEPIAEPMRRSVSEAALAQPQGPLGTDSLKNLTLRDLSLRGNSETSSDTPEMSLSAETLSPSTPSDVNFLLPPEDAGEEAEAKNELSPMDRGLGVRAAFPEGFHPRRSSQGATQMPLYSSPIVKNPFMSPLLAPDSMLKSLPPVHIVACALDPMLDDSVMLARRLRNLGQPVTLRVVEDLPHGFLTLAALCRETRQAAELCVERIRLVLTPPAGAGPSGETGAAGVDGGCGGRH
Method: Production of Human Full Length Hormone Sensitive Lipase-His^6:
1) Cloning: cDNA was prepared from commercial human brain polyA+ RNA and used as a template in overlapping PCR to generate a full length human HSL ORF with a 3′-His6 tag. This full length insert was cloned into the pFast-BAC vector and the DNA-sequence of several single clones was verified. DNA from a correct full length clone with the 3′His6 tag was used to transform the E. coli strain DH10BAC. Resulting bacmid DNA was used to generate a titered baculovirus stock for protein generation. The sequence of the encoded HSL conforms to Swissprot entry Q05469, with the additional C-terminal His6-tag.
2) Protein purification: Culture: 5.5 L, High 5 cells expressing human full length HSL-His^6, 48 hr., containing 25 μM E-64. Cell count: […], 90% viable. Cells were thawed. On ice, cells were suspended in Base Buffer containing 10% glycerol, 25 mM Tris-Cl, 300 mM NaCl, 10 mM imidazole, 10 mM 2-mercaptoethanol, 2 μg pepstatin/ml, 2 μg leupeptin/ml, 2 μg antipain/ml, pH 8.0 at 4° C. in a final volume of 475 ml with 3.75×10^7 cells/ml. […] was done at 3×30 sec., Lubrol PX was added to 0.2% final concentration followed by stirring for 15 min. at 4° C. and centrifugation at 25 k×g, 60 min., 4° C. Soluble proteins were mixed with 60 ml of pre-washed and equilibrated Ni-NTA Agarose (Qiagen 30210) followed by tumbling end-over-end, 45 min., 4° C., centrifugation 1000 rpm 5 min and letting resin settle 5 min. Supernatant was removed, the resin washed in the centrifuge vessel using 5 volumes of Base Buffer containing 0.2% Lubrol PX. Centrifugation was done again, then the supernatant discarded. The resin was poured onto a 0.8 μm membrane in a disposable filter unit (Nalge 450-0080), and washed with 5 volumes of Base Buffer containing 0.2% Lubrol PX. It was then washed with 30 volumes of Base Buffer containing 60 mM imidazole pH 7.5 at 4° C. The protein was eluated with 5 volumes of 25 mM Tris-Cl, 300 mM NaCl, 200 mM imidazole, 10 mM 2-mercaptoethanol, pH 7.5 at 4° C. by tumbling resin with buffer end-over-end, 30 min., 4° C. The resin was captured on a 0.2 μm membrane disposable filter unit (Millipore SCGP U02 RE) and the eluate collected in the reservoir. The eluate was concentrated using a 30 k MWCO centrifugal filter device (Sartorius Vivascience Vivacell 100, VC1022), to 20 ml. It was then dialyzed overnight at 4° C., two times against 2 L of 10% glycerol, 25 mM Tris-Cl, 300 mM NaCl, 0.2 mM EDTA, 0.2 mM DTT, pH 7.5 at 4° C. The protein was filtered using a 0.22 μm disposable filter unit (Millipore SCGP00525). The protein concentration was calculated from absorbance at 280 nm, using 280=0.67 cm-1 mg-1. Yield was 235 mg, total. The protein was stored at −80° C.
Human Hormone-Sensitive Lipase (HSL) Enzyme Inhibition Assay:
HSL enzyme activity was measured by a colorimetric assay using 2,3-dimercapto-1-propanol tributyrate (Aldrich, St. Louis, Mo.) as a substrate. Typically, 1.5 mM 2,3-dimercapto-1-propanol tributyrate (DMPT) in 100 mM MOPS, pH 7.2, 0.2 mg/ml fatty acid-free BSA was prepared by sonication at 4° C. to homogenous suspension. Test compounds (2 mM stock in DMSO) were diluted 3 fold in series in DMSO. Compound solutions were diluted 24 fold in 1.5 mM DMPT containing solution and 18 ul per well was added to 384-well microplates (Corning Costar). Twelve microliters per well of human HSL (15 ug/ml) was added and the reaction mixture was incubated at 37° C. for 20 minutes. Six microliters of 12 mM dithio-bis-(2-nitrobenzoic acid) (DTNB) in DMSO plus 1.2% SDS and 0.6% Triton X-100 were added and the mixture was incubated at room temperature for 15 minutes. Product production was monitored by reading absorbance at 405 nm on an Envision Reader (PerkinElmer Life and Analytical Sciences, Shelton, Conn.).

Compound | IC50 [nM]
CC(Oc1ccc(NC(=O)C2CCN(C(=O)c3ccccc3Cl)CC2)cc1)C(F)(F)F (racemic) [Example 44, (rac)-1-(2-Chloro-benzoyl)-piperidine-4-carboxylic acid [4-(2,2,2-trifluoro-1-methyl-ethoxy)-phenyl]-amide] | 620
Cc1ccc(S(=O)(=O)N2CCC(C(=O)Nc3ccc(OC(CO)C(F)(F)F)cc3)CC2)cc1 (racemic) [Example 45, (rac)-1-(Toluene-4-sulfonyl)-piperidine-4-carboxylic acid [4-(2,2,2-trifluoro-1-hydroxymethyl-ethoxy)-phenyl]-amide] | 150
CC1(C(=O)Nc2ccc(OC(C)(C)C(F)(F)F)cc2)CCN(S(=O)(=O)c2ccccc2)CC1 (racemic) [Example 50, (rac)-1-Benzenesulfonyl-4-methyl-piperidine-4-carboxylic acid [4-(2,2,2-trifluoro-1,1-dimethyl-ethoxy)-phenyl]-amide] | 810
Cc1ccc(S(=O)(=O)N2CCC(C(=O)Nc3ccc(OCC(O)C(F)(F)F)cc3)CC2)cc1 (racemic) [Example 52, (rac)-1-(Toluene-4-sulfonyl)-piperidine-4-carboxylic acid [4-(3,3,3-trifluoro-2-hydroxy-propoxy)-phenyl]-amide] | 860
COC(COc1ccc(NC(=O)C2CCN(S(=O)(=O)c3ccc(C)cc3)CC2)cc1)C(F)(F)F (racemic) [Example 53, (rac)-1-(Toluene-4-sulfonyl)-piperidine-4-carboxylic acid [4-(3,3,3-trifluoro-2-methoxy-propoxy)-phenyl]-amide] | 660
COCC(Oc1ccc(NC(=O)C2CCN(S(=O)(=O)c3ccc(C)cc3)CC2)cc1)C(F)(F)F (racemic) [Example 54, (rac)-1-(Toluene-4-sulfonyl)-piperidine-4-carboxylic acid [4-(2,2,2-trifluoro-1-methoxymethyl-ethoxy)-phenyl]-amide] | 80
Cc1ccc(S(=O)(=O)N2CCC(CO)(C(=O)Nc3ccc(OC(C)C(F)(F)F)cc3)CC2)cc1 (racemic) [Example 55, (rac)-4-Hydroxymethyl-1-(toluene-4-sulfonyl)-piperidine-4-carboxylic acid [4-(2,2,2-trifluoro-1-methyl-ethoxy)-phenyl]-amide] | 1420
Cc1ccc(S(=O)(=O)N2CCC(C(=O)Nc3ccc(OC(F)(F)F)cc3)CC2)cc1 [Example 1, 1-(Toluene-4-sulfonyl)-piperidine-4-carboxylic acid (4-trifluoromethoxy-phenyl)-amide] | 80
CC(C)c1ccc(NC(=O)C2CCN(S(=O)(=O)c3ccccc3)CC2)cn1 [Example 2, 1-Benzenesulfonyl-piperidine-4-carboxylic acid (6-isopropyl-pyridin-3-yl)-amide] | 240
COc1ccc(NC(=O)C2CCN(S(=O)(=O)c3ccccc3)CC2)nn1 [Example 3, 1-Benzenesulfonyl-piperidine-4-carboxylic acid (6-methoxy-pyridazin-3-yl)-amide] | 12000
Cc1ccc(S(=O)(=O)N2CCC(C(=O)Nc3ccc(OC(C)C)cc3)CC2)cc1 [Example 7, 1-(Toluene-4-sulfonyl)-piperidine-4-carboxylic acid (4-isopropoxy-phenyl)-amide] | 70
CC(C)c1ccc(NC(=O)C2CCN(C(=O)CC3CC3)CC2)cc1 [Example 8, 1-(2-Cyclopropyl-acetyl)-piperidine-4-carboxylic acid (4-isopropyl-phenyl)-amide] | 800
CC(C)c1ccc(NC(=O)C2CCN(C(=O)CCC3CC3)CC2)cc1 [Example 9, 1-(3-Cyclopropyl-propionyl)-piperidine-4-carboxylic acid (4-isopropyl-phenyl)-amide] | 350
CC(C)c1ccc(NC(=O)C2CCN(C(=O)CC(C)(C)C)CC2)cc1 [Example 10] | 200
COCCCC1(C(=O)Nc2ccc(OC(C)C)cc2)CCN(S(=O)(=O)c2ccccc2)CC1 [Example 12, 1-Benzenesulfonyl-4-(3-methoxy-propyl)-piperidine-4-carboxylic acid (4-isopropoxy-phenyl)-amide] | 920

From US8258158B2 (Hoffmann-La Roche Inc., priority 2009, dated 2012)
